Experimental data as given in PMC10515640, “Structure-Based Optimization of Covalent, Small-Molecule Stabilizers of the 14-3-3σ/ERα Protein–Protein Interaction from Nonselective Fragments” (Journal of the American Chemical Society, 2023).

How the values were obtained:
[1] = molecular target: T1, 14-3-3σ/ERα (Homo sapiens, UniProt P03372+P31947); test: Mass spectrometry dose response, compound binding to 14-3-3σ in the presence of ERα phosphopeptide; conditions: 100 nM compound, 100 nM 14-3-3σ, ERα-peptide 2 µM
T1 construct: The 14-3-3 σ isoform (full-length for mass spectrometry and fluorescence anisotropy assays, ΔC for crystallography); made in house; host or cells: E. coli Rosetta 2(DE3)pLysS, pPROEX HTb vector
Outline: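 Covalent labeling of Cys38 on 14-3-3σ was tracked by LC-MS on a Waters Acquity UPLC/Xevo G2-XS Q-Tof, with samples desalted on a Protein BEH-C4 column. Full-length wild type 14-3-3σ (100 nM) plus ERα phosphopeptide was mixed with compound in 10 mM TRIS, pH 8.0, at 50 μl per well. Percent bound was measured at several time points.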

[2] = molecular target: T2, 14-3-3σ (Homo sapiens, UniProt P31947); test: Mass spectrometry dose response, compound binding to 14-3-3σ in the absence of peptide (apo); conditions: 100 nM compound, 100 nM 14-3-3σ
T2 construct: The 14-3-3 σ isoform (full-length for mass spectrometry and fluorescence anisotropy assays, ΔC for crystallography); made in house; host or cells: E. coli Rosetta 2(DE3)pLysS, pPROEX HTb vector
T2 sequence (P31947 1-248): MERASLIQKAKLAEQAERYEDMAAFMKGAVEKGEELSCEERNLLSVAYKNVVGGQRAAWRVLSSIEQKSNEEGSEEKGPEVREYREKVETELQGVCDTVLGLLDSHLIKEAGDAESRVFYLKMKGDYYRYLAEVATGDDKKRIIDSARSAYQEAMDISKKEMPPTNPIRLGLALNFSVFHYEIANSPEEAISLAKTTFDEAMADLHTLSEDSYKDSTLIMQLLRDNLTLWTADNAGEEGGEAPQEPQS
Outline: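 Covalent binding of compounds to Cys38 of full-length wild type human 14-3-3σ (100 nM) was measured by LC-MS without peptide present. Compounds from 50 mM DMSO stocks were serially diluted 3-fold and 1000 nl transferred to plates in TRIS buffer (10 mM, pH 8.0), 50 μl per well. Samples were desalted on a BEH-C4 column and analysed on a Xevo G2-XS Q-Tof at several time points.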

[3] = molecular target: T1, 14-3-3σ/ERα; test: Fluorescence anisotropy compound titration, FAM-labeled ERα peptide; type: binding; conditions: 10 nM ERα-FAM labeled peptide, 1 µM 14-3-3σ, overnight incubation (24 h); read-out: EC50 value ERα (FA compound titration)
Outline: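 Fluorescence anisotropy compound titration measuring stabilization of the 14-3-3σ/ERα interaction: compounds were titrated in a 2-fold dilution series (starting at 500 or 1000 µM) into a mix of 10 nM fluorescein-labeled ERα peptide and 1 µM 14-3-3σ (about EC25 of the complex) in HEPES buffer with 1% DMSO, read after overnight incubation at room temperature; EC50 from 4PL fitting.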

[4] = molecular target: T3, 14-3-3σ/C-RAF (Homo sapiens, UniProt P31947); test: Mass spectrometry dose response, compound binding to 14-3-3σ in the presence of C-RAF phosphopeptide; conditions: 100 nM compound, 100 nM 14-3-3σ, C-RAF peptide 18 µM
T3 construct: The 14-3-3 σ isoform (full-length for mass spectrometry and fluorescence anisotropy assays, ΔC for crystallography); made in house; host or cells: E. coli Rosetta 2(DE3)pLysS, pPROEX HTb vector
T3 sequence (P31947 1-248): T2 sequence (P31947 1-248)
Outline: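 Covalent binding of compounds to the native Cys38 of 14-3-3σ was monitored by LC-MS on a Waters Acquity UPLC/Xevo G2-XS Q-Tof, with samples desalted on a BEH-C4 column. Full-length wild type 14-3-3σ (100 nM) with C-RAF peptide in TRIS buffer (10 mM, pH 8.0) was incubated with compound dose series at room temperature.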

[5] = molecular target: T3, 14-3-3σ/C-RAF; test: Fluorescence anisotropy compound titration, FAM-labeled C-RAF peptide; type: binding; conditions: 10 nM C-RAF-FAM labeled peptide, 5 µM 14-3-3σ, overnight incubation; read-out: EC50 value C-RAF (FA compound titration)
Source text: Two orthogonal assays were developed for screening. For the primary assay, mass spectrometry (MS) was used to monitor the formation of the covalent bond between the compound and the native cysteine (Cys38 on 14-3-3σ) (Figure 1D). The assay was first performed in the absence of peptide to determine binding to 14-3-3σ only (apo screening, D1) and then in the presence of both 14-3-3σ and the peptide as an indication of how much the peptide stabilized compound binding (D2). […] As a secondary assay, fluorescence anisotropy (FA) was used. In this case, compounds were titrated to mixtures of 14-3-3σ and FAM-labeled peptides. […] Thus, the two assays are highly complementary; the MS assay reports on compound binding and the FA assay reports on peptide binding. […]
diluted in buffer (10 mM HEPES, pH 7.5, 150 mM NaCl, 0.1% Tween20, 1 mg/mL Bovine Serum Albumin (BSA; Sigma-Aldrich). Final DMSO in the assay was always 1%. Dilution series of 14-3-3 proteins or compounds were made in […]
Compound titrations were made by titrating the compound in a 2-fold dilution series (starting at 500 or 1000 µM) to a mix of fluorescein-labeled peptide (10 nM) and 14-3-3σ (concentration at approximately the EC20 to EC30 value of the protein-peptide complex; 1 µM for ERα and 5 µM for C-RAF). Using the ~EC25 value makes the assay sensitive for measuring an increase in PPI formation. Fluorescence anisotropy measurements were performed directly and after overnight incubation at room temperature. […]
Wells containing only FAM-peptide were used to set as G-factor at 35 mP. Data reported are at endpoint. EC50 and apparent Kd values were obtained from fitting the data with a four-parameter logistic model (4PL) in GraphPad Prism 7 for Windows. Data was obtained and averaged based on either three (compound titrations) or two (protein titrations) independent experiments.

Compound	Percentage (%) bound of compound to 14-3-3σ, ERα 1h [1] [%]	Percentage (%) bound of compound to 14-3-3σ, ERα 8h [1] [%]	Percentage (%) bound of compound to 14-3-3σ, ERα 16h [1] [%]	Percentage (%) bound of compound to 14-3-3σ, ERα 24h [1] [%]	Percentage (%) bound of compound to 14-3-3σ, APO 1h [2] [%]	Percentage (%) bound of compound to 14-3-3σ, APO 8h [2] [%]	Percentage (%) bound of compound to 14-3-3σ, APO 16h [2] [%]	Percentage (%) bound of compound to 14-3-3σ, APO 24h [2] [%]	EC50 [3] [µM]	Percentage (%) bound of compound to 14-3-3σ, CRAF 1h [4] [%]	Percentage (%) bound of compound to 14-3-3σ, CRAF 8h [4] [%]	Percentage (%) bound of compound to 14-3-3σ, CRAF 24h ([4]; 24h) [%]	Percentage (%) bound of compound to 14-3-3σ, CRAF 24h ([4]; head prints 24h) [%]	EC50 [5] [µM]
O=C(CCl)NCC1CCN(C(=O)C2(Oc3ccc(Cl)cc3)CCCCC2)CC1 [compound 122]	1.6	7.1	11.5	32.3	0	0	0.8	1.3	55 ± 14	1.5	4.8	17.5	8.9	> 150
O=C(CCl)NCC1CCN(C(=O)C2(Nc3ccc(Cl)cc3)CCCCC2)CC1 [compound 123]	3.4	8.3	20.8	63.9	0.0	1.0	1.0	1.9	8 ± 1	1.0	1.9	3.5	1.9	59 ± 4
O=C(CCl)NCC1CCN(C(=O)C2(Oc3ccc(Cl)cc3)CCC(F)(F)CC2)CC1 [compound 124]	7.4	15.3	33.4	66.9	0	1.0	1.4	1.6	18 ± 0.4	2.0	2.9	15.3	9.1	> 150
O=C(CCl)NCC1CCN(C(=O)C2(Nc3ccc(Cl)cc3)CCC(F)(F)CC2)CC1 [compound 125]	13.8	30.0	64.6	87.5	0.4	1.1	2.1	6.2	12 ± 2	4.9	7.6	23.2	12.4	> 150
O=C(CCl)NCC1CCN(C(=O)C2(Oc3ccc(Cl)cc3)CCOCC2)CC1 [compound 126]	1.7	6.2	9.1	15.1	0	0	0	1.0	9 ± 2	0.0	1.0	4.7	3.6	> 150
Cl.O=C(CCl)NCC1CCN(C(=O)C2(Oc3ccc(Cl)cc3)CCNCC2)CC1 [compound 129]	16.5	31.4	58.4	82.6	0.9	2.0	2.4	4.8	30 ± 1	0.4	0.6	2.6	1.9	> 150
